According to PMC9222373 (2022):

Tested on: Apt-5 (unlabelled) (DNA, aptamer) AGCAGCACAGAGGTCAGATGGGATGTGAGGTGGCTCTCGTATCTATAGATTTTGGCGAGACCTATGCGTGCTACCGTGAA
Assay: AuNP aggregation colorimetry
Details: NaCl added after incubation (75 mM optimised); 37 °C, 1 h; 10 ng/mL toxin; 200 nM aptamer stock; insignificant colour change

| SMILES | binding |
| --- | --- |
| C[C@@H]1Cc2c(Cl)cc(C(=O)N[C@@H](Cc3ccccc3)C(=O)O)c(O)c2C(=O)O1 | no |
| C[C@H]1CCCC(=O)CCC/C=C/c2cc(O)cc(O)c2C(=O)O1 | no |
| CCCC[C@@H](C)[C@@H](OC(=O)C[C@@H](CC(=O)O)C(=O)O)[C@H](C[C@@H](C)C[C@H](O)CCCC[C@@H](O)C[C@H](O)[C@H](C)N)OC(=O)C[C@@H](CC(=O)O)C(=O)O | no |
